Data from patent US20110039721A1, “METHOD FOR PREDICTION ABOUT CARCINOGENICITY OF SUBSTANCE IN RODENT” (Chemicals Evaluation and Research Institute, priority 2007, published 2011).

Assays:
[1] = test system: rodent; conditions: in vivo; cited from earlier work
[2] = test system: liver; conditions: in vivo; cited from earlier work
[3] = test system: mRNA expressed from the genes (A) to (D) in rat liver; assay: Behavior of genes (mRNA expression level, oligo-DNA microarray) in rat liver after 28-day oral administration; type: in vivo
Procedure, shortened: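 Liver mRNA levels were compared with matched vehicle groups, with a shift of at least 1.5-fold up or down deemed significant unless its direction disagreed with other carcinogens. Test substances were dosed orally by gavage daily for 28 days to 5-week-old male F344 rats, four per group.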

[4] = (A), Unigene Rn.144554, defined direction +, rat liver, oral once daily 28 days
[5] = (A), Unigene Rn.167075, defined direction +, rat liver, oral once daily 28 days, significant = 1.5 times or more or 1/1.5 or less of control
[6] = (A), Unigene Rn.167075, defined direction −, rat liver, oral once daily 28 days
[7] = (A), Unigene Rn.5834, defined direction +, rat liver, oral once daily 28 days
[8] = (A), Unigene Rn.9836, defined direction +, rat liver, oral once daily 28 days
[9] = (B), Unigene Rn.1430, defined direction −, rat liver, oral once daily 28 days
[10] = (B), Unigene Rn.19329, defined direction +, rat liver, oral once daily 28 days
[11] = (B), Unigene Rn.21240, defined direction +, rat liver, oral once daily 28 days
[12] = (C), Unigene Rn.106184, defined direction +, rat liver, oral once daily 28 days
[13] = (C), Unigene Rn.108075, defined direction −, rat liver, oral once daily 28 days
[14] = (C), Unigene Rn.11766, defined direction +, rat liver, oral once daily 28 days
[15] = (C), Unigene Rn.118529, defined direction −, rat liver, oral once daily 28 days
[16] = (C), Unigene Rn.119024, defined direction −, rat liver, oral once daily 28 days
[17] = (C), Unigene Rn.120914, defined direction +, rat liver, oral once daily 28 days
[18] = (C), Unigene Rn.123063, defined direction −, rat liver, oral once daily 28 days
[19] = (C), Unigene Rn.143213, defined direction −, rat liver, oral once daily 28 days
[20] = (C), Unigene Rn.144946, defined direction −, rat liver, oral once daily 28 days
[21] = (C), Unigene Rn.14744, defined direction −, rat liver, oral once daily 28 days
[22] = (C), Unigene Rn.1647, defined direction −, rat liver, oral once daily 28 days
[23] = (C), Unigene Rn.164817, defined direction +, rat liver, oral once daily 28 days
[24] = (C), Unigene Rn.167685, defined direction −, rat liver, oral once daily 28 days
[25] = (C), Unigene Rn.185941, defined direction −, rat liver, oral once daily 28 days
[26] = (C), Unigene Rn.18728, defined direction −, rat liver, oral once daily 28 days
[27] = (C), Unigene Rn.201760, defined direction +, rat liver, oral once daily 28 days
[28] = (C), Unigene Rn.23969, defined direction +, rat liver, oral once daily 28 days
[29] = (C), Unigene Rn.24561, defined direction −, rat liver, oral once daily 28 days
[30] = (C), Unigene Rn.43232, defined direction −, rat liver, oral once daily 28 days
[31] = (C), Unigene Rn.4620, defined direction +, rat liver, oral once daily 28 days
[32] = (C), Unigene Rn.9757, defined direction +, rat liver, oral once daily 28 days
[33] = (C), Unigene Rn.9779, defined direction +, rat liver, oral once daily 28 days
[34] = (C), Unigene Rn.9862, defined direction −, rat liver, oral once daily 28 days
[35] = (D), Unigene Rn.9939, defined direction −, rat liver, oral once daily 28 days
[36] = gene group (A), Unigene No. Rn.167075
[37] = gene group (C), Unigene No. Rn.120914

CC(=O)Nc1ccc2c(c1)Cc1ccccc1-2 [TS043, 2-Acetylaminofluorene]
Cr+: Liver carcinogenicity [2]
−: Behavior of gene caused by administration of chemical substance, Gene No. 1494 [3, 9] | Behavior of gene caused by administration of chemical substance, Gene No. 2045 [3, 10] | Behavior of gene caused by administration of chemical substance, Gene No. 2203 [3, 11] | Behavior of gene caused by administration of chemical substance, Gene No. 533 [3, 12] | Behavior of gene caused by administration of chemical substance, Gene No. 1334 [3, 17] | Behavior of gene caused by administration of chemical substance, Gene No. 6620 [3, 17] | Behavior of gene caused by administration of chemical substance, Gene No. 5878 [3, 19] | Behavior of gene caused by administration of chemical substance, Gene No. 1131 [3, 20] | Behavior of gene caused by administration of chemical substance, Gene No. 1741 [3, 22] | Behavior of gene caused by administration of chemical substance, Gene No. 6026 [3, 24] | Behavior of gene caused by administration of chemical substance, Gene No. 154 [3, 25] | Behavior of gene caused by administration of chemical substance, Gene No. 813 [3, 27] | Behavior of gene caused by administration of chemical substance, Gene No. 2494 [3, 28] | Behavior of gene caused by administration of chemical substance, Gene No. 2546 [3, 29] | Behavior of gene caused by administration of chemical substance, Gene No. 3776 [3, 30] | Behavior of gene caused by administration of chemical substance, Gene No. 3929 [3, 31] | Behavior of gene caused by administration of chemical substance, Gene No. 1119 [3, 32] | Behavior of gene caused by administration of chemical substance, Gene No. 6742 [3, 33] | Behavior of gene caused by administration of chemical substance, Gene No. 5634 [3, 34] | Behavior of gene caused by administration of chemical substance, Gene No. 5726 [3, 35]
C+: Carcinogenicity [1]
+: Behavior of gene caused by administration of chemical substance, Gene No. 4846 [3, 4] | Behavior of gene caused by administration of chemical substance, Gene No. 4218 [3, 5] | Behavior of gene caused by administration of chemical substance, Gene No. 2026 [3, 6] | Behavior of gene caused by administration of chemical substance, Gene No. 6182 [3, 7] | Behavior of gene caused by administration of chemical substance, Gene No. 5600 [3, 8] | Behavior of gene caused by administration of chemical substance, Gene No. 725 [3, 13] | Behavior of gene caused by administration of chemical substance, Gene No. 1163 [3, 14] | Behavior of gene caused by administration of chemical substance, Gene No. 4973 [3, 15] | Behavior of gene caused by administration of chemical substance, Gene No. 4095 [3, 16] | Behavior of gene caused by administration of chemical substance, Gene No. 6303 [3, 18] | Behavior of gene caused by administration of chemical substance, Gene No. 1562 [3, 21] | Behavior of gene caused by administration of chemical substance, Gene No. 893 [3, 23] | Behavior of gene caused by administration of chemical substance, Gene No. 1993 [3, 26]

Nc1ccc(N)c(Cl)c1.O=S(=O)(O)O [TS058, 2-Chloro-p-phenylenediamine SO4]
−: Behavior of gene caused by administration of chemical substance, Gene No. 4846 ([3]; gene group (A), Unigene No. Rn.144554) | Behavior of gene caused by administration of chemical substance, Gene No. 2026 [3, 36] | Behavior of gene caused by administration of chemical substance, Gene No. 4218 [3, 36] | Behavior of gene caused by administration of chemical substance, Gene No. 6182 ([3]; gene group (A), Unigene No. Rn.5834) | Behavior of gene caused by administration of chemical substance, Gene No. 5600 ([3]; gene group (A), Unigene No. Rn.9836) | Behavior of gene caused by administration of chemical substance, Gene No. 1494 ([3]; gene group (B), Unigene No. Rn.1430) | Behavior of gene caused by administration of chemical substance, Gene No. 2203 ([3]; gene group (B), Unigene No. Rn.21240) | Behavior of gene caused by administration of chemical substance, Gene No. 533 ([3]; gene group (C), Unigene No. Rn.106184) | Behavior of gene caused by administration of chemical substance, Gene No. 725 ([3]; gene group (C), Unigene No. Rn.108075) | Behavior of gene caused by administration of chemical substance, Gene No. 4973 ([3]; gene group (C), Unigene No. Rn.118529) | Behavior of gene caused by administration of chemical substance, Gene No. 4095 ([3]; gene group (C), Unigene No. Rn.119024) | Behavior of gene caused by administration of chemical substance, Gene No. 1334 [3, 37] | Behavior of gene caused by administration of chemical substance, Gene No. 6620 [3, 37] | Behavior of gene caused by administration of chemical substance, Gene No. 6303 ([3]; gene group (C), Unigene No. Rn.123063) | Behavior of gene caused by administration of chemical substance, Gene No. 5878 ([3]; gene group (C), Unigene No. Rn.143213) | Behavior of gene caused by administration of chemical substance, Gene No. 1131 ([3]; gene group (C), Unigene No. Rn.144946) | Behavior of gene caused by administration of chemical substance, Gene No. 1562 ([3]; gene group (C), Unigene No. Rn.14744) | Behavior of gene caused by administration of chemical substance, Gene No. 1741 ([3]; gene group (C), Unigene No. Rn.1647) | Behavior of gene caused by administration of chemical substance, Gene No. 893 ([3]; gene group (C), Unigene No. Rn.164817) | Behavior of gene caused by administration of chemical substance, Gene No. 6026 ([3]; gene group (C), Unigene No. Rn.167685) | Behavior of gene caused by administration of chemical substance, Gene No. 1993 ([3]; gene group (C), Unigene No. Rn.18728) | Behavior of gene caused by administration of chemical substance, Gene No. 813 ([3]; gene group (C), Unigene No. Rn.201760) | Behavior of gene caused by administration of chemical substance, Gene No. 3776 ([3]; gene group (C), Unigene No. Rn.43232) | Behavior of gene caused by administration of chemical substance, Gene No. 3929 ([3]; gene group (C), Unigene No. Rn.4620) | Behavior of gene caused by administration of chemical substance, Gene No. 6742 ([3]; gene group (C), Unigene No. Rn.9779) | Behavior of gene caused by administration of chemical substance, Gene No. 5726 ([3]; gene group (D), Unigene No. Rn.9939)
+: Behavior of gene caused by administration of chemical substance, Gene No. 2045 ([3]; gene group (B), Unigene No. Rn.19329) | Behavior of gene caused by administration of chemical substance, Gene No. 1163 ([3]; gene group (C), Unigene No. Rn.11766) | Behavior of gene caused by administration of chemical substance, Gene No. 154 ([3]; gene group (C), Unigene No. Rn.185941) | Behavior of gene caused by administration of chemical substance, Gene No. 2494 ([3]; gene group (C), Unigene No. Rn.23969) | Behavior of gene caused by administration of chemical substance, Gene No. 2546 ([3]; gene group (C), Unigene No. Rn.24561) | Behavior of gene caused by administration of chemical substance, Gene No. 1119 ([3]; gene group (C), Unigene No. Rn.9757) | Behavior of gene caused by administration of chemical substance, Gene No. 5634 ([3]; gene group (C), Unigene No. Rn.9862)
Cr−: Liver carcinogenicity [2]
C−: Carcinogenicity [1]

CCOC(N)=O [TS054, Urethane]
C+: Carcinogenicity [1]
Cr+: Liver carcinogenicity [2]
−: Behavior of gene caused by administration of chemical substance, Gene No. 4218 [3, 5] | Behavior of gene caused by administration of chemical substance, Gene No. 2026 [3, 6] | Behavior of gene caused by administration of chemical substance, Gene No. 5600 [3, 8] | Behavior of gene caused by administration of chemical substance, Gene No. 1494 [3, 9] | Behavior of gene caused by administration of chemical substance, Gene No. 2045 [3, 10] | Behavior of gene caused by administration of chemical substance, Gene No. 2203 [3, 11] | Behavior of gene caused by administration of chemical substance, Gene No. 533 [3, 12] | Behavior of gene caused by administration of chemical substance, Gene No. 725 [3, 13] | Behavior of gene caused by administration of chemical substance, Gene No. 1163 [3, 14] | Behavior of gene caused by administration of chemical substance, Gene No. 4973 [3, 15] | Behavior of gene caused by administration of chemical substance, Gene No. 4095 [3, 16] | Behavior of gene caused by administration of chemical substance, Gene No. 1334 [3, 17] | Behavior of gene caused by administration of chemical substance, Gene No. 6620 [3, 17] | Behavior of gene caused by administration of chemical substance, Gene No. 6303 [3, 18] | Behavior of gene caused by administration of chemical substance, Gene No. 5878 [3, 19] | Behavior of gene caused by administration of chemical substance, Gene No. 1131 [3, 20] | Behavior of gene caused by administration of chemical substance, Gene No. 1562 [3, 21] | Behavior of gene caused by administration of chemical substance, Gene No. 1741 [3, 22] | Behavior of gene caused by administration of chemical substance, Gene No. 893 [3, 23] | Behavior of gene caused by administration of chemical substance, Gene No. 6026 [3, 24] | Behavior of gene caused by administration of chemical substance, Gene No. 154 [3, 25] | Behavior of gene caused by administration of chemical substance, Gene No. 1993 [3, 26] | Behavior of gene caused by administration of chemical substance, Gene No. 813 [3, 27] | Behavior of gene caused by administration of chemical substance, Gene No. 2494 [3, 28] | Behavior of gene caused by administration of chemical substance, Gene No. 2546 [3, 29] | Behavior of gene caused by administration of chemical substance, Gene No. 3776 [3, 30] | Behavior of gene caused by administration of chemical substance, Gene No. 3929 [3, 31] | Behavior of gene caused by administration of chemical substance, Gene No. 1119 [3, 32] | Behavior of gene caused by administration of chemical substance, Gene No. 6742 [3, 33] | Behavior of gene caused by administration of chemical substance, Gene No. 5634 [3, 34]
+: Behavior of gene caused by administration of chemical substance, Gene No. 4846 [3, 4] | Behavior of gene caused by administration of chemical substance, Gene No. 6182 [3, 7] | Behavior of gene caused by administration of chemical substance, Gene No. 5726 [3, 35]
